Assay results taken from ChEMBL document CHEMBL3639188, “Tyrosine kinase inhibitors” (2014).

Molecular target: High affinity nerve growth factor receptor (Homo sapiens, UniProt P04629)
Assay: In Vitro Kinase Activity Assay: Compounds to be tested were dissolved in 100% DMSO in a range of concentrations from 10^-8 to 10^-3 M including negative control (DMSO), then diluted with Kinase Buffer (50 mM HEPES, pH 7.5, 1 mM EGTA, 10 mM MgCl2, 0.01% Tween-20, and 2 mM DTT, added fresh) to 4x the final concentration. The final curve included 11 concentrations (10^-11 to 10^-5 M) plus negative …

Sequence of High affinity nerve growth factor receptor (P04629 whole entry): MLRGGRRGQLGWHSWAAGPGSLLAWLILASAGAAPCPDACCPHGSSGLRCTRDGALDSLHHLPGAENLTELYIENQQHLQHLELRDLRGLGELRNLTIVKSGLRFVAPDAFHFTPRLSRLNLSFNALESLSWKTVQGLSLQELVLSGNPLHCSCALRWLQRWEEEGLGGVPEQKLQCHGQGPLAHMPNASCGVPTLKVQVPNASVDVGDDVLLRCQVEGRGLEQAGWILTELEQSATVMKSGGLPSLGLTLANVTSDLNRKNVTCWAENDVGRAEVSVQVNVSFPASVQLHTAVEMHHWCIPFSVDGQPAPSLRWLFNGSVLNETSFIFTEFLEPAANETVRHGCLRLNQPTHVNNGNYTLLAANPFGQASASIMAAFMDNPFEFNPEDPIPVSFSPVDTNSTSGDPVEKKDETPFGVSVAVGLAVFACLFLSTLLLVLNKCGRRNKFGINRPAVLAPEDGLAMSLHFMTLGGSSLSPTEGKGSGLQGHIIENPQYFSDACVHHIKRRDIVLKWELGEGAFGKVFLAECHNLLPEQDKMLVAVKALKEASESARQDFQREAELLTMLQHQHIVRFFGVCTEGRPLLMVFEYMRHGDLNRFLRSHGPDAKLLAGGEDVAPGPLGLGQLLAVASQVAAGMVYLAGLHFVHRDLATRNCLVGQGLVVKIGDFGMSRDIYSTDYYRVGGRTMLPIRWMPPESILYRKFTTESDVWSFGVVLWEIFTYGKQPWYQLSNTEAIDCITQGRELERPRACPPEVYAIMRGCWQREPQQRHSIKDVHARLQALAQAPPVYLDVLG

- IC50: 6.35 nM
SMILES: CC(Cc1cc(F)ccc1F)Nc1cc[nH]c(=O)c1-c1nc2cc3c(cc2[nH]1)C(=O)N(C1CCN(C)CC1)C3=O (stereo unspecified)
